Marks after values point to notes of the source that are not given here.

From patent US6649628B1, “N-[2-hydroxy-3-(1-piperidinyl)propoxy]pyridine-1-oxide-3-carboximidoyl chloride and its use in the treatment of insulin resistance” (Biorex Kutato es Fejleszto RT, priority 1999, dated 2003) come the findings set out here.

Format in all cases: in vivo, rat
The subject of assay [1] is obese, insulin resistant, hyperinsulinaemic Zucker fa/fa rats. Put plainly: Experiment 1: carbohydrate metabolism (fasting glucose/insulin, ip glucose tolerance test) after 2-month treatment. Here is the method: In the experiments so-called Zucker fa/fa rats (Charles River Laboratories Inc.) were used. In […] animals, obesity, insulin resistance, high blood insulin level, impaired glucose tolerance and hypertriglyceridaemia result from hypothalamic leptin receptor mutation. Due to the above characteristics, this is an accepted model of early type 2 diabetes.
The animals were placed in individual metabolic cages for 24 hours at the beginning of the study, and after 1 or 2 months of treatment for 24 hours of urine collection.
The animals were given either the test substances or physiological saline solution by gavage for control once a day between weeks 14-22.
Biochemical parameters of the blood and the urine were measured by a Kodak Ectachem 700 automatic analyzer. The total protein level of the urine was determined spectrophotometrically with the use of Bradford staining (Hitachi U-3200) at 595 nm. The insulin concentration of the serum was determined by the RIA method, using rat anti-insulin antibodies.
Systolic, diastolic blood pressure and heart rate were measured weekly on the tails of the rats (so-called tail cuff method) by a Letica 200 automatic analyzer. After two months of treatment, the level of glucose tolerance was determined by the intraperitoneal glucose tolerance test (2 g/kg ip.).

Assay [2] relates to STZ-diabetic Wistar rats. The assay can be described thus: Experiment 3: diabetic autonomous neuropathy after 1 month of treatment. The settings on record: daily 20 mg/kg single dose. Here is the method: The experiments were performed under anesthesia achieved by administering 60 mg/kg ip. pentobarbital sodium (Nembutal, Sanofi, Phylaxia). After this, an intratracheal tube or polyethylene canula was inserted into the fermoral artery and vein. The arterial catheter was connected to a pressure transducer for the simultaneous measurement of systolic and diastolic blood pressure (online automatic measuring and forwarding system, with a Haemosys computer program). After 20 minutes of equillibration period, the following substances were administered intravenously: Noradrenalin, 5 μg/kg iv.—Isoproterenol 0.4 μg/kg iv.—N.vagus stimulation (2 V, duration: 500 μsec, delay: 1 msec). The effects of the substances were monitored for 10 minutes.

The test system of assay [3] is STZ-diabetic Wistar rats. The assay can be described thus: Experiment 4: histological alterations of early diabetic retinopathy after 1 month of treatment. The settings on record: 1 month. Here is the method:
Photographs and slide positives were prepared of representative samples.
The given value for negative cases was 0.1. A Box and Whisker plot graph was also prepared.

Assay [4] concerns STZ diabetic Wistar rats. Put plainly: Preliminary test: N-oxide derivatives of bimoclomol on motor and sensor nerve conduction velocity deficit. As to the method: In a preliminary test the effectiveness of the three N-oxide derivatives of bimoclomol on motor and sensor neuropathy in STZ diabetic Wistar rats were studied. The effectiveness of the three bimoclomol N-oxide derivatives in improving the peripheral motor and sensor nerve conduction velocity deficit caused by streptozotocine-induced diabetes was determined with use of the method described in detail in Experiment 2.
(§1) (Graphpad Instat, San Diego, Calif.).

In assay [5] the test system is STZ-diabetic Wistar rats. The assay can be described thus: Experiment 5: urinary protein loss caused by diabetic nephropathy after 1-month treatment. As to the method: For the 24-hour period of urine collection, the animals were placed in individual metabolic cages. During this period they were given water ad libitum but no food. The latter measure was necessary to prevent possible contamination by the protein content of the food. Urine was collected in calibrated glass containers, in which Thymol crystal (Reanal 3135-1-08-38) was placed to prevent bacterial contamination.
Before measurement, the urine samples were centrifuged (2500 rpm) and filtered through a paper filter (Whatmann 1). If necessary, they were stored at −20° C. until measurement.
The total protein content of the urine was determined by the Bradford staining method (Sigma B-6916, St. Louis, Mo.), and color intensity was detected by spectrophotometry (Hitachi-U-3200).

In assay [6] the test system is STZ-diabetic Wistar rats. The assay can be described thus: Experiment 2: peripheral neuropathy, nerve conduction velocity after 1-month treatment.
Text: as §1

Setting [7] is: 20 mg/kg p.os daily, 2-month treatment.
The mark [8] stands for this setting: intraperitoneal glucose tolerance test.
[9] abbreviates: ip glucose tolerance test 2 g/kg, AUC 0-60 minutes, 20 mg/kg p.os daily, 2-month treatment.
Setting [10] is: 1 month, isoproterenol 0.4 μg/kg iv.
Where [11] appears, read: 20 mg/kg p.os once a day, 1 month.

Regarding `O=C(O)/C=C\C(=O)O.OC(CON=C(Cl)c1cccnc1)CN1CCCCC1` (racemic) [bimoclomol, maleate of O-(3-piperidino-2-hydroxy-1-propyl)-3-pyridyne hydroxymic acid-chloride, reference compound], in assay [1] (20 mg/kg p.os daily), the “effect on fasting blood glucose” value was “significantly reduced” and the “effect on fasting insulin concentration” value is “did not effect”. Moreover, in assay [1] (setting [7]), the “Fasting Blood Glucose (mean ± SE)” value is 8.179 ± 0.316 mmol/L and the “Fasting Insulin (mean ± SE)” value came to 29.362 ± 9.211 ng/mL. Besides, in assay [1] (setting [8]), the “effect on AUC of insulin” value is given as “had no effect” and the “effect on area under the blood glucose curve (AUC)” value is reported as “neither bimoclomol, nor Compound A effected”. For the same compound, in assay [1] (setting [9]), the “Blood Glucose (AUC) (mean ± SE)” value came to 1286.86 ± 131.59 and the “Insulin (AUC) (mean ± SE)” value was determined as 2337.71 ± 590.49. Moreover, in assay [1] (summary of Experiment 1), the “effect on peripheral insulin resistance” value is “does not”. Further, the “effect on pathological deviations resulting from autonomous neuropathy” value in assay [2] is listed as “significantly reduced”. In addition, in assay [2] (1 month), the “Increased negative chronotropic effect on vagus stimulation” value is listed as “↑ (corrects)”, the “Reduced hypotension on vagus stimulation” value is given as “↑ (corrects)”, the “Systemic arterial hypotension (deviation due to diabetes)” value is listed as “↑ (corrects)” and the “Weight loss (deviation due to diabetes)” value was “↑ (corrects)”. Also, in assay [2] (setting [10]), the “Reduced IS induced positive chronotropic effect” value is “↑ (corrects)” and the “Reduced IS induced systemic arterial hypotension” value is “↑ (corrects)”. For the same compound, the “Reduced NA induced systemic arterial pressure response” value in assay [2] (1 month, noradrenalin 5 μg/kg iv.) is recorded as “↑ (corrects)”. Moreover, in assay [3] (20 mg/kg daily), the “Score values Improvement %” value was found to be 61.3% and the “Score values Mean ± SE (retinopathy histology)” value worked out at 5.185 ± 1.019. Further, the “effect on diabetic retinopathy induced pathological histological alterations” value in assay [3] (Compound A 5 mg/kg, bimoclomol 20 mg/kg daily) is recorded as “significantly improved”. Also, in assay [4] (20 mg/kg), the “Improvement of nerve conduction velocity (%) motor (MNCV)” value (“Improvement … (%) motor (MNCV)” below) was 72,4% and the “Improvement of nerve conduction velocity (%) sensor (SNCV)” value (“Improvement … (%) sensor (SNCV)” below) was 66,9%. Moreover, the “24-hour Urinary Protein Loss Mean ± SE” value in assay [5] (20 mg/kg daily, 1 month, series 1) was 3.66 ± 1.39 mg/24 h. Also, the “effect on STZ-diabetes-induced urinary protein loss” value in assay [5] (Bimoclomol 20 mg/kg, Compound-A 10 mg/kg, (+) enantiomer 5 mg/kg daily) is recorded as “significantly reduced”. In assay [6] (setting [11]), this compound gave an MNCV of 57.4 ± 0.2 m/s, an MNCV improvement of 79.7%, an SNCV of 58.5 ± 0.6 m/s and an SNCV improvement of 77.9%. Also, the “effect on motor (MNCV) and sensor (SNCV) nerve conduction velocities” value in assay [6] (bimoclomol 20 mg/kg, Compound A 5 mg/kg once a day) is listed as “significantly improved”.

Take `[O-][n+]1cccc(C(Cl)=NOCC(O)CN2CCCCC2)c1` (stereo not shown) [N-[2-hydroxy-3-(1-piperidinyl)-1-propoxy]-pyridine-1-oxide-3-carboximidoyl chloride]: in assay [4] (5 mg/kg), the “Improvement … (%) motor (MNCV)” value was 66,5% and the “Improvement … (%) sensor (SNCV)” value is on record as 63,4%. In assay [4] (N-oxide derivatives 5 mg/kg vs bimoclomol 20 mg/kg), the “effect on the motor and sensor neuropathy compared with bimoclomol” value is on record as “equivalent with bimoclomol”.

Consider `[O-][n+]1cccc(C(Cl)=NOCC(O)C[N+]2([O-])CCCCC2)c1` (stereo not shown) [double N-oxide derivative of bimoclomol], for which, in assay [4] (5 mg/kg), the “Improvement … (%) motor (MNCV)” value is recorded as 25,9* % and the “Improvement … (%) sensor (SNCV)” value is listed as 29,1** %.
